# Activity calls are given as the source filed them. The rule behind the calls is not given here.
# Experiments:
# Vero [1] = assay: Cytotoxicity against african green monkey Vero cells assessed as growth inhibition at > 200 uM after 72 hrs by sulforhodamine B assay; conditions: Chlorocebus sabaeus
# [2] = Cytotoxicity against human KKU-M156 cells assessed as growth inhibition after 72 hrs by sulforhodamine B assay; conditions: KKU-M156, 72 h
# [3] = Cytotoxicity against human KKU-M139 cells assessed as growth inhibition after 72 hrs by sulforhodamine B assay; conditions: KKU-M139, 72 h
# [4] = Cytotoxicity against human KKU-M213 cells assessed as growth inhibition after 72 hrs by sulforhodamine B assay; conditions: KKU-M213, 72 h
# KKU-M156 = assay: Cytotoxicity against human KKU-M156 cells assessed as growth inhibition at > 200 uM after 72 hrs by sulforhodamine B assay
# KKU-M139 = assay: Cytotoxicity against human KKU-M139 cells assessed as growth inhibition at > 200 uM after 72 hrs by sulforhodamine B assay
# Vero [5] = assay: Cytotoxicity against african green monkey Vero cells assessed as growth inhibition after 72 hrs by sulforhodamine B assay; conditions: Chlorocebus sabaeus
# KKU-M213 = assay: Cytotoxicity against human KKU-M213 cells assessed as growth inhibition at > 200 uM after 72 hrs by sulforhodamine B assay
SMILES,Activity (Vero [1]),IC50 [2] [µM],IC50 [3] [µM],IC50 [4] [µM],inhibition (KKU-M156),inhibition (KKU-M139),IC50 (Vero [5]) [µM],inhibition (KKU-M213)
COC(=O)[C@]1(C)CCC[C@@]2(C)[C@H]1CC[C@H]1C(=O)c3ccoc3C[C@@H]12,Non-toxic,148,23.2,34.8,–,–,–,–
COC(=O)[C@]1(C)CCC[C@@]2(C)[C@H]1CC[C@H]1[C@@H](C)C3=CC(=O)OC3=C[C@@H]12,–,–,–,47.6,inactive,inactive,94.4,–
COC(=O)C1(C(=O)OC)CCC[C@]2(C)c3cc4occc4c(C)c3CC[C@@H]12,–,83.6,80.2,44.2,–,–,65.7,–
CC1=C2CC3CC[C@@H](C)C2(CC1=O)C3(C)C (stereo partly specified),Non-toxic,–,–,138,inactive,inactive,–,–
COC(=O)[C@]1(C)CCC[C@@]2(C)[C@H]1CC[C@H]1C(C)=CC(=O)C[C@@H]12,–,–,197,66.8,inactive,–,50.5,–
COC(=O)[C@]1(C)CCC[C@]2(C)c3cc4occc4c(C)c3CC[C@@H]12,–,80.1,70.6,144,–,–,57.6,–
C[C@H]1C2=CC(=O)O[C@]2(O)C[C@H]2[C@H]1CC[C@@H]1[C@]2(C)CCC[C@@]1(C)C(=O)O [DIPTERYXIC ACID],–,82.9,77.3,68.9,–,–,97.1,–
CC(C)[C@@H]1CC[C@@H](C)[C@@H]2CCC(C=O)=C[C@@]12O,Non-toxic,–,–,88.8,inactive,inactive,–,–
Cc1c2ccncc2c(C)c2c1[nH]c1ccccc12 [ELLIPTECINE],–,37.9,18.3,6.58,–,–,15.5,–
CC(C)[C@]1(O)CC[C@@H](C)[C@@H]2CCC(=O)C=C21,–,139,148,–,–,–,154,inactive
CC(C)[C@@H]1CC[C@@H](C)[C@@H]2CCC(=O)C=C12,–,88.8,70.8,87.3,–,–,154,–
COC(=O)[C@]1(C)CCC[C@]2(C)c3cc4occc4c(C)c3C[C@@H](O)[C@@H]12,Non-toxic,113,122,105,–,–,–,–
COC(=O)[C@]1(C)CC[C@@H](OC(C)=O)[C@]2(C)c3cc4occc4c(C)c3C[C@@H](O)[C@H]21,Non-toxic,115,155,98.2,–,–,–,–
COC(=O)[C@]1(C)CCC[C@@]2(C)[C@H]1CC[C@H]1[C@@H](C)C3=CC(=O)O[C@]3(O)C[C@@H]12,–,61.2,76.3,44,–,–,59.2,–

# — ChEMBL document CHEMBL3352676, “Terpenoids from the root bark of Pterolobium macropterum” (J Nat Prod, 2014)
